According to publication PMC12529881, “Quantitative analysis of inhibitor‐induced assembly disruption in human UDP‐GlcNAc 2‐epimerase using mass photometry” (Protein Science : A Publication of the Protein Society, 2025):
Where two headings read alike, the source gives them in different places.

Assays:
[1] = target: T1, human UDP‐GlcNAc 2‐epimerase (GNE) (Homo sapiens, UniProt Q9Y223); assay: Mass photometry GNE assembly inhibition (inhibitor titration against 800 nM GNE); type: biochemical; settings: for IC50 / effect on dimeric assembly: 800 nM GNE; for effect on dimeric assembly: absence of UDP‐GlcNAc; for Ki: from IC50 ^S (T) by modified Cheng–Prusoff equation (Equation S4), read-out: K i ^S (T)
T1 construct: The MNK subunit connects to the C‐terminus of the GNE subunit; made in house; host or cells: Escherichia coli BL21 (DE3)
T1 sequence (Q9Y223 1-405 limits assumed): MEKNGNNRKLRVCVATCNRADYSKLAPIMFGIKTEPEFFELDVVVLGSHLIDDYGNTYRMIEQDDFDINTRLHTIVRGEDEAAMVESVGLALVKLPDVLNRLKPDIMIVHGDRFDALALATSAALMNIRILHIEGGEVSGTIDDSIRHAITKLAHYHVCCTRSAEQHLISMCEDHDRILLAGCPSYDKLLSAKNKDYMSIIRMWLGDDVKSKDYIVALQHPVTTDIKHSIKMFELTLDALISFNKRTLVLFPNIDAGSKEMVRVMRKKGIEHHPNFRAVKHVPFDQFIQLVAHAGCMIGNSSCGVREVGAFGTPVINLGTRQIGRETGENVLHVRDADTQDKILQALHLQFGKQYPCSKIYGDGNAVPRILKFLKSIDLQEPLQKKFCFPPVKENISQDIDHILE
Method: All MP measurements were conducted using a OneMP (Refeyn) instrument equipped with a 525 nm green laser. To minimize background noise, the instrument was placed on an active vibration isolation system (Accurion i4 Series, Park Systems). High‐precision glass coverslips (Paul Marienfeld GmbH & Co. KG, Cat# 0107222) were thoroughly cleaned before use to ensure optimal measurement conditions. Prior to MP measurements, samples were incubated in phosphate buffer (DPBS[−|−], Gibco, Cat# 14190144) and low‐binding tubes for 30 min in a ThermoMixer C (Eppendorf, Cat# 5382000015) at 20°C to allow binding equilibrium to be reached. Immediately before measurement, a 50 nM working solution was prepared. Then, 5 μL of the working solution was added to a 15 μL DPBS (−|−) droplet on the glass coverslip, followed by mixing upon pipetting to ensure proper distribution before measurements began immediately. […] For the measurements, a regular field of view was used. Data acquisition was performed over a 60‐s detection period with manual focus adjustment. Data were recorded using the software AquireMP (2024 R2, Refeyn) and referenced against a glycinin mass standard in DPBS (−|−). The glycinin standard, derived from defatted soybean flour, forms characteristic trimers (160 kDa), hexamers (320 kDa), nonamers (480 kDa), and dodecamers (640 kDa). Purified and lyophilized glycinin was kindly provided by the group of Dr. Rumiana Dimova (Chen et al., [2020]; Mangiarotti et al., [2025]). Data analysis and graphical visualization were performed using DiscoverMP (2024 R2, Refeyn) and GraphPad Prism 10 (10.1.1, Dotmatics). All experiments were conducted in at least three independent replicates, each performed as technical triplicates.
Twofold serial dilutions of the inhibitors (500–7.81 μM) were titrated against a constant GNE concentration (800 nM), either in the presence or absence of UDP‐GlcNAc (100 μM). The GNE and substrate concentrations were selected based on titration experiments ensuring binding saturation and the establishment of an assembly equilibrium. Prior to measurements, samples were incubated for 30 min at 20°C to allow equilibrium to be reached. IC50 values were determined from protein fraction vs. inhibitor concentration plots and fitted using a Hill‐based logistic function (Equation S3). Subsequently, K i values for GNE inhibitors were derived from a Cheng–Prusoff equation accounting for allostery (Equation S4), detailed in Supporting Information S1.

[2] = target: T1, human UDP‐GlcNAc 2‐epimerase (GNE); assay: Mass photometry Schild experiments and OMAM global fit (GNE tetramer inhibition by C15); type: binding
Method: (§1) All MP measurements were conducted using a OneMP (Refeyn) instrument equipped with a 525 nm green laser. To minimize background noise, the instrument was placed on an active vibration isolation system (Accurion i4 Series, Park Systems). High‐precision glass coverslips (Paul Marienfeld GmbH & Co. KG, Cat# 0107222) were thoroughly cleaned before use to ensure optimal measurement conditions. Prior to MP measurements, samples were incubated in phosphate buffer (DPBS[−|−], Gibco, Cat# 14190144) and low‐binding tubes for 30 min in a ThermoMixer C (Eppendorf, Cat# 5382000015) at 20°C to allow binding equilibrium to be reached. Immediately before measurement, a 50 nM working solution was prepared. Then, 5 μL of the working solution was added to a 15 μL DPBS (−|−) droplet on the glass coverslip, followed by mixing upon pipetting to ensure proper distribution before measurements began immediately. This approach provided high reproducibility in our results. For the measurements, a regular field of view was used. Data acquisition was performed over a 60‐s detection period with manual focus adjustment. Data were recorded using the software AquireMP (2024 R2, Refeyn) and referenced against a glycinin mass standard in DPBS (−|−). The glycinin standard, derived from defatted soybean flour, forms characteristic trimers (160 kDa), hexamers (320 kDa), nonamers (480 kDa), and dodecamers (640 kDa). Purified and lyophilized glycinin was kindly provided by the group of Dr. Rumiana Dimova (Chen et al., [2020]; Mangiarotti et al., [2025]). Data analysis and graphical visualization were performed using DiscoverMP (2024 R2, Refeyn) and GraphPad Prism 10 (10.1.1, Dotmatics). All experiments were conducted in at least three independent replicates, each performed as technical triplicates.
To assess the binding affinity of inhibitors to GNE, modified Schild experiments were performed using MP. Serial dilutions of UDP‐GlcNAc (800 μM to 100 nM) were titrated against a constant GNE concentration (800 nM) in the presence of varying concentrations of inhibitor C15 (200 μM to 2 nM). Enzyme and substrate concentrations were chosen based on prior titration experiments (Figure 2c,g) to ensure a stable oligomeric equilibrium. Inhibitor concentrations were selected around the IC50 to enable accurate response characterization. Samples were incubated for 30 min at 20°C to ensure equilibration before measurement. EC50 values were obtained from substrate titration curves (tetramer fraction vs. UDP‐GlcNAc concentration), fitted using a Hill‐based function (Equation S3). The resulting EC50 values in the presence of inhibitor (EC50,Inh) were converted into logarithmic concentration ratios (log(CR‐1)) and plotted against the corresponding logarithmic inhibitor concentrations to generate a Schild plot. Data points were then fitted using a linear Schild equation (Equation S5), as described in the Supporting Information S1. Further cooperative factors were obtained from fitting the substrate concentration‐dependent response curves globally with an OMAM model (Equation S6) (Jakubík et al., [2020]).

[3] = target: T1, human UDP‐GlcNAc 2‐epimerase (GNE); assay: Mass photometry affinity measurements of GNE subunits / substrate titration; type: binding
Method: as §1
To determine the intermolecular protein affinities of GNE subunits, their assembly distribution was assessed using MP experiments. In the absence of substrate, serial GNE dilutions (50 μM to 50 nM) were performed to evaluate GNE subunit interactions. In the presence of UDP‐GlcNAc, intermolecular affinity changes were assessed through two titration approaches: First, different concentrations of UDP‐GlcNAc (500–7.81 μM) were titrated against a fixed concentration of GNE (0.8 μM). Second, different concentrations of GNE (0.2–10 μM) were titrated against a fixed concentration of UDP‐GlcNAc (100 μM). KD values were obtained from binding curves (Figure S4), fitted using a Hill‐based logistic model (Equation S1) (Fineberg et al., [2020]). The following dissociation constants were determined: K D ^0 (M:M) and K D ^0 (D:D) in the absence of UDP‐GlcNAc, K D ^S (D:D) and K D ^S (M:M) in the presence of UDP‐GlcNAc.

GNE = test system: GNE; parameters: method as in Chen et al., 2016; settings: ref Chen et al., 2016; cited from earlier work
mass photometry [4] = target: the molecule itself; assay: mass photometry
mass photometry [5] = target: the molecule itself; assay: mass photometry; remark: listed apart in the source
[6] = 100 μM UDP‐GlcNAc, DPBS pH 7.4, 20°C, Hill n fixed 1.3, read-out: IC50 ^S (T), GNE tetramer destabilization
[7] = absence of UDP-GlcNAc, read-out: IC50^0(D), GNE dimer inhibition
[8] = presence of 100 µM UDP-GlcNAc, read-out: IC50^S(D), GNE dimer inhibition
[9] = substrate titration against 800 nM GNE

## O=c1nc(/C=C/c2cc([N+](=O)[O-])ccc2Cl)cc(C(F)(F)F)[nH]1 [C13, (E)‐4‐(2‐chloro‐5‐nitrostyryl)‐6‐(trifluoromethyl)pyrimidin‐2(1H)‐one]
[1]; [6]
  IC50: 19.4 ± 4.2 µM
[1]; [7]
  IC50: > 1000 µM
[1]; [8]
  IC50: 472 ± 42.5 µM
[1]
  effect on dimeric assembly: significantly disrupted the dimeric assembly
[1]; 100 μM UDP‐GlcNAc
  Ki: 0.508 ± 0.182 µM

## COc1c(Br)cc(Br)cc1/C=C/c1cc(C(F)(F)F)[nH]c(=O)n1 [C15, (E)‐4‐(3,5‐dibromo‐2‐methoxystyryl)‐6‐(trifluoromethyl)pyrimidin‐2(1H)‐one]
[2]
  K B (OMAM) fold lower than K B,app (Schild): ~ 28 fold
[2]; OMAM fit
  operational cooperativity factor β: ≈ 0
  operational efficacy τ I (inhibitor): 0.02
[2]; OMAM fit, between C15 and substrate binding
  binding cooperativity factor ɑ: 0.02
[2]; OMAM global fit (Equation S6), read-out: inhibitor affinity K B
  Kd: 0.0252 µM
[2]; linear region 0.8–10 μM C15, Equation S5
  Schild slope m: 1.1
[2]; x‐intercept of linear Schild fit (linear region 0.8–10 μM C15), 800 nM GNE, read-out: apparent affinity K B,app
  Kd: ~0.7 µM
[1]; [6]
  IC50: 3.1 ± 1.2 µM
[1]; [7]
  IC50: 21 ± 2.6 µM
[1]; [8]
  IC50: 173 ± 100 µM
[1]; 31.25 μM C15, 800 nM GNE, 100 μM UDP‐GlcNAc
  tetramer inhibition at single concentration: full tetramer inhibition
[1]
  effect on dimeric assembly: significantly disrupted the dimeric assembly
[1]; 100 μM UDP‐GlcNAc
  Ki: 0.0826 ± 0.0397 µM

## CC(=O)N[C@H]1[C@@H](OP(=O)([O-])OP(=O)([O-])OC[C@H]2O[C@@H](n3ccc(=O)[nH]c3=O)[C@H](O)[C@@H]2O)O[C@H](CO)[C@@H](O)[C@@H]1O.[Na+].[Na+] [UDP‐GlcNAc, Uridine diphosphate N‐acetyglucosamine disodium salt]
[3]
  increase of dimer–dimer affinity by substrate binding: 98 fold
[3]; from tetramer curve, substrate titration against 800 nM GNE, Equation S2, read-out: substrate affinity K S
  Kd: 34.6 ± 3 µM
[3]; presence of 100 μM UDP‐GlcNAc, fit Equation S1, read-out: K D ^S (D:D), GNE dimer–dimer interaction
  Kd: 0.0981 ± 0.0091 µM
[3]; presence of 100 μM UDP‐GlcNAc, fit Equation S1, read-out: K D ^S (M:M), GNE monomer–monomer interaction
  Kd: 0.0372 ± 0.0075 µM
[3]; presence of 100 μM UDP‐GlcNAc, mean calculated by law of mass action, read-out: K D ^S Calc.(D:D)
  Kd: 0.221 ± 0.0272 µM
[3]; presence of 100 μM UDP‐GlcNAc, mean calculated by law of mass action, read-out: K D ^S Calc.(M:M)
  Kd: 0.0653 ± 0.0124 µM
[3]; [9]
  Hill coefficient n of tetramer fraction: 1.3
  maximal response E max (maximal tetramer fraction): 68.3%
[2]; OMAM fit
  operational efficacy τ S (substrate): 17.6
GNE
  K M of GNE: 33.1 ± 4.2 µM

B1: GNE (UDP-GlcNAc 2-epimerase), monomer UDP-GlcNAc 2-epimerase domain (protein)
chain: T1 sequence (Q9Y223 1-405 limits assumed)
Mass photometry [4]
  Kd: 0.0126 µM

B2: GNE (UDP-GlcNAc 2-epimerase), dimer UDP-GlcNAc 2-epimerase domain (protein)
chain: T1 sequence (Q9Y223 1-405 limits assumed)
Mass photometry [5]
  Kd: 9.6 µM
